{"source": "patent US11807644B2", "about": "(PMV Pharmaceuticals, Inc., priority 2020, dated 2023)", "data": [{"molecular_target": "T1, recombinant His-tag Y220C p53 DBD protein (Homo sapiens, UniProt P04637, Y220C)", "T1 construct": "recombinant His-tag Y220C p53 DBD protein (amino acids #˜94-312)", "assay": "In vitro DNA binding activity assay (TR-FRET): binding of His-tag Y220C p53 DBD to biotin-labeled consensus DNA", "type": "biochemical", "settings": "SC150 = concentration to increase DNA binding by […], His-tag Y220C p53 DBD, biotin-labeled consensus DNA", "values": [{"smiles": "CN1CCC(Nc2cccc3c2cc(-c2nc(CNC(=O)C4CC4)no2)n3CC(F)(F)F)CC1", "note": "[Compound 137B, N-[(5-{4-[(1-methylpiperidin-4-yl)amino]-1-(2,2,2-trifluoroethyl)-1H-indol-2-yl}-1,2,4-oxadiazol-3-yl)methyl]cyclopropanecarboxamide]", "Y220C SC150 (μM)": "** (** = 0.1 μM ≤ SC150 < 0.5 μM)"}, {"smiles": "CN1CCC(Nc2cccc3c2cc(-c2nc(CNC(=O)c4ccccc4)no2)n3CC(F)(F)F)CC1", "note": "[Compound 138B, N-[(5-{4-[(1-methylpiperidin-4-yl)amino]-1-(2,2,2-trifluoroethyl)-1H-indol-2-yl}-1,2,4-oxadiazol-3-yl)methyl]benzamide]", "Y220C SC150 (μM)": "** (** = 0.1 μM ≤ SC150 < 0.5 μM)"}, {"smiles": "CN1CCC(Nc2cccc3c2cc(-c2nc(CNC(=O)c4cccs4)no2)n3CC(F)(F)F)CC1", "note": "[Compound 139B, N-[(5-{4-[(1-methylpiperidin-4-yl)amino]-1-(2,2,2-trifluoroethyl)-1H-indol-2-yl}-1,2,4-oxadiazol-3-yl)methyl]thiophene-2-carboxamide]", "Y220C SC150 (μM)": "** (** = 0.1 μM ≤ SC150 < 0.5 μM)"}, {"smiles": "CN1CCC(Nc2cccc3c2cc(-c2nc(CNC(=O)c4cnn(C)c4)no2)n3CC(F)(F)F)CC1", "note": "[Compound 140B, 1-methyl-N-[(5-{4-[(1-methylpiperidin-4-yl)amino]-1-(2,2,2-trifluoroethyl)-1H-indol-2-yl}-1,2,4-oxadiazol-3-yl)methyl]-1H-pyrazole-4-carboxamide]", "Y220C SC150 (μM)": "** (** = 0.1 μM ≤ SC150 < 0.5 μM)"}, {"smiles": "CN1CCC(Nc2cccc3c2cc(-c2nc(CNC(=O)c4ccn(C)n4)no2)n3CC(F)(F)F)CC1", "note": "[Compound 141B, 1-methyl-N-[(5-{4-[(1-methylpiperidin-4-yl)amino]-1-(2,2,2-trifluoroethyl)-1H-indol-2-yl}-1,2,4-oxadiazol-3-yl)methyl]-1H-pyrazole-3-carboxamide]", "Y220C SC150 (μM)": "** (** = 0.1 μM ≤ SC150 < 0.5 μM)"}, {"smiles": "CN1CCC(Nc2cccc3c2cc(-c2noc(CNc4ccccc4)n2)n3CC(F)(F)F)CC1", "note": "[Compound 142B, N-(1-methylpiperidin-4-yl)-2-{5-[(phenylamino)methyl]-1,2,4-oxadiazol-3-yl}-1-(2,2,2-trifluoroethyl)-1H-indol-4-amine]", "Y220C SC150 (μM)": "* (* = 0 μM ≤ SC150 < 0.1 μM)"}, {"smiles": "CN1CCC(Nc2cccc3c2cc(-c2noc(CNC(=O)c4cccs4)n2)n3CC(F)(F)F)CC1", "note": "[Compound 143B, N-[(3-{4-[(1-methylpiperidin-4-yl)amino]-1-(2,2,2-trifluoroethyl)-1H-indol-2-yl}-1,2,4-oxadiazol-5-yl)methyl]thiophene-2-carboxamide]", "Y220C SC150 (μM)": "* (* = 0 μM ≤ SC150 < 0.1 μM)"}, {"smiles": "CN1CCC(Nc2cccc3c2cc(-c2noc(CNC(=O)c4ccccc4)n2)n3CC(F)(F)F)CC1", "note": "[Compound 144B, N-[(3-{4-[(1-methylpiperidin-4-yl)amino]-1-(2,2,2-trifluoroethyl)-1H-indol-2-yl}-1,2,4-oxadiazol-5-yl)methyl]benzamide]", "Y220C SC150 (μM)": "* (* = 0 μM ≤ SC150 < 0.1 μM)"}, {"smiles": "CN1CCC(Nc2cccc3c2cc(-c2noc(CNC(=O)c4ccc(Cl)cc4)n2)n3CC(F)(F)F)CC1", "note": "[Compound 148B, 4-chloro-N-[(3-{4-[(1-methylpiperidin-4-yl)amino]-1-(2,2,2-trifluoroethyl)-1H-indol-2-yl}-1,2,4-oxadiazol-5-yl)methyl]benzamide]", "Y220C SC150 (μM)": "* (* = 0 μM ≤ SC150 < 0.1 μM)"}, {"smiles": "CN1CCC(Nc2cccc3c2cc(-c2noc(CNC(=O)c4nccs4)n2)n3CC(F)(F)F)CC1", "note": "[Compound 149B, N-[(3-{4-[(1-methylpiperidin-4-yl)amino]-1-(2,2,2-trifluoroethyl)-1H-indol-2-yl}-1,2,4-oxadiazol-5-yl)methyl]-1,3-thiazole-2-carboxamide]", "Y220C SC150 (μM)": "* (* = 0 μM ≤ SC150 < 0.1 μM)"}, {"smiles": "CN1CCC(Nc2cccc3c2cc(-c2noc(CNC(=O)c4ccc(F)cc4)n2)n3CC(F)(F)F)CC1", "note": "[Compound 150B, 4-fluoro-N-[(3-{4-[(1-methylpiperidin-4-yl)amino]-1-(2,2,2-trifluoroethyl)-1H-indol-2-yl}-1,2,4-oxadiazol-5-yl)methyl]benzamide]", "Y220C SC150 (μM)": "* (* = 0 μM ≤ SC150 < 0.1 μM)"}, {"smiles": "CN1CCC(Nc2cccc3c2cc(-c2noc(CNC(=O)c4ccc(C#N)cc4)n2)n3CC(F)(F)F)CC1", "note": "[Compound 151B, 4-cyano-N-[(3-{4-[(1-methylpiperidin-4-yl)amino]-1-(2,2,2-trifluoroethyl)-1H-indol-2-yl}-1,2,4-oxadiazol-5-yl)methyl]benzamide]", "Y220C SC150 (μM)": "* (* = 0 μM ≤ SC150 < 0.1 μM)"}, {"smiles": "CN1CCC(Nc2cccc3c2cc(-c2noc(CNC(=O)c4ccn(C)c4)n2)n3CC(F)(F)F)CC1", "note": "[Compound 152B, 1-methyl-N-[(3-{4-[(1-methylpiperidin-4-yl)amino]-1-(2,2,2-trifluoroethyl)-1H-indol-2-yl}-1,2,4-oxadiazol-5-yl)methyl]-1H-pyrrole-3-carboxamide]", "Y220C SC150 (μM)": "* (* = 0 μM ≤ SC150 < 0.1 μM)"}, {"smiles": "CN1CCC(Nc2cccc3c2cc(-c2noc(CNC(=O)Nc4ccccc4)n2)n3CC(F)(F)F)CC1", "note": "[Compound 153B, 3-[(3-{4-[(1-methylpiperidin-4-yl)amino]-1-(2,2,2-trifluoroethyl)-1H-indol-2-yl}-1,2,4-oxadiazol-5-yl)methyl]-1-phenylurea]", "Y220C SC150 (μM)": "* (* = 0 μM ≤ SC150 < 0.1 μM)"}, {"smiles": "CN1CCC(Nc2cccc3c2cc(-c2noc(CNC(=O)c4cnn(C)c4)n2)n3CC(F)(F)F)CC1", "note": "[Compound 154B, 1-methyl-N-[(3-{4-[(1-methylpiperidin-4-yl)amino]-1-(2,2,2-trifluoroethyl)-1H-indol-2-yl}-1,2,4-oxadiazol-5-yl)methyl]-1H-pyrazole-4-carboxamide]", "Y220C SC150 (μM)": "* (* = 0 μM ≤ SC150 < 0.1 μM)"}, {"smiles": "CN1CCC(Nc2cccc3c2cc(-c2noc(CNC(=O)c4ccn(C)n4)n2)n3CC(F)(F)F)CC1", "note": "[Compound 155B, 1-methyl-N-[(3-{4-[(1-methylpiperidin-4-yl)amino]-1-(2,2,2-trifluoroethyl)-1H-indol-2-yl}-1,2,4-oxadiazol-5-yl)methyl]-1H-pyrazole-3-carboxamide]", "Y220C SC150 (μM)": "* (* = 0 μM ≤ SC150 < 0.1 μM)"}, {"smiles": "O=C(NCc1nc(-c2cc3c(NC4CCOCC4)cccc3n2CC(F)(F)F)no1)C1CC1", "note": "[Compound 159B, N-[(3-{4-[(oxan-4-yl)amino]-1-(2,2,2-trifluoroethyl)-1H-indol-2-yl}-1,2,4-oxadiazol-5-yl)methyl]cyclopropanecarboxamide]", "Y220C SC150 (μM)": "* (* = 0 μM ≤ SC150 < 0.1 μM)"}, {"smiles": "O=C(NCc1nc(-c2cc3c(NCc4ccccc4)cccc3n2CC(F)(F)F)no1)C1CC1", "note": "[Compound 160B, N-({3-[4-(benzylamino)-1-(2,2,2-trifluoroethyl)-1H-indol-2-yl]-1,2,4-oxadiazol-5-yl}methyl)cyclopropanecarboxamide]", "Y220C SC150 (μM)": "** (** = 0.1 μM ≤ SC150 < 0.5 μM)"}, {"smiles": "CC(=O)N1CCC(Nc2cccc3c2cc(-c2noc(CNC(=O)C4CC4)n2)n3CC(F)(F)F)CC1", "note": "[Compound 161B, N-[(3-{4-[(1-acetylpiperidin-4-yl)amino]-1-(2,2,2-trifluoroethyl)-1H-indol-2-yl}-1,2,4-oxadiazol-5-yl)methyl]cyclopropanecarboxamide]", "Y220C SC150 (μM)": "* (* = 0 μM ≤ SC150 < 0.1 μM)"}, {"smiles": "O=C(NCc1nc(-c2cc3c(NC4CCS(=O)(=O)CC4)cccc3n2CC(F)(F)F)no1)C1CC1", "note": "[Compound 162B, N-[(3-{4-[(1,1-dioxo-1λ^6-thian-4-yl)amino]-1-(2,2,2-trifluoroethyl)-1H-indol-2-yl}-1,2,4-oxadiazol-5-yl)methyl]cyclopropanecarboxamide]", "Y220C SC150 (μM)": "* (* = 0 μM ≤ SC150 < 0.1 μM)"}, {"smiles": "O=C(NCc1nc(-c2cc3c(NC4CCN(Cc5ccccc5)CC4)cccc3n2CC(F)(F)F)no1)C1CC1", "note": "[Compound 163B, N-[(3-{4-[(1-benzylpiperidin-4-yl)amino]-1-(2,2,2-trifluoroethyl)-1H-indol-2-yl}-1,2,4-oxadiazol-5-yl)methyl]cyclopropanecarboxamide]", "Y220C SC150 (μM)": "* (* = 0 μM ≤ SC150 < 0.1 μM)"}, {"smiles": "O=C(NCc1nc(-c2cc3c(NC4CCN(C5CC5)CC4)cccc3n2CC(F)(F)F)no1)C1CC1", "note": "[Compound 164B, N-[(3-{4-[(1-cyclopropylpiperidin-4-yl)amino]-1-(2,2,2-trifluoroethyl)-1H-indol-2-yl}-1,2,4-oxadiazol-5-yl)methyl]cyclopropanecarboxamide]", "Y220C SC150 (μM)": "* (* = 0 μM ≤ SC150 < 0.1 μM)"}, {"smiles": "O=C(NCc1nc(-c2cc3c(NCC4CC4)cccc3n2CC(F)(F)F)no1)C1CC1", "note": "[Compound 165B, N-[(3-{4-[(cyclopropylmethyl)amino]-1-(2,2,2-trifluoroethyl)-1H-indol-2-yl}-1,2,4-oxadiazol-5-yl)methyl]cyclopropanecarboxamide]", "Y220C SC150 (μM)": "** (** = 0.1 μM ≤ SC150 < 0.5 μM)"}, {"smiles": "O=C(NCc1nc(-c2cc3c(NCC4CCC4)cccc3n2CC(F)(F)F)no1)C1CC1", "note": "[Compound 166B, N-[(3-{4-[(cyclobutylmethyl)amino]-1-(2,2,2-trifluoroethyl)-1H-indol-2-yl}-1,2,4-oxadiazol-5-yl)methyl]cyclopropanecarboxamide]", "Y220C SC150 (μM)": "** (** = 0.1 μM ≤ SC150 < 0.5 μM)"}, {"smiles": "CCN1CCC(Nc2cccc3c2cc(-c2noc(CNC(=O)C4CC4)n2)n3CC(F)(F)F)CC1", "note": "[Compound 168B, N-[(3-{4-[(1-ethylpiperidin-4-yl)amino]-1-(2,2,2-trifluoroethyl)-1H-indol-2-yl}-1,2,4-oxadiazol-5-yl)methyl]cyclopropanecarboxamide]", "Y220C SC150 (μM)": "* (* = 0 μM ≤ SC150 < 0.1 μM)"}, {"smiles": "O=C(NCc1nc(-c2cc3c(NCC4CNC4)cccc3n2CC(F)(F)F)no1)C1CC1", "note": "[Compound 170B, N-{[3-(4-{[(432zetidine-3-yl)methyl]amino}-1-(2,2,2-trifluoroethyl)-1H-indol-2-yl)-1,2,4-oxadiazol-5-yl]methyl}cyclopropanecarboxamide]", "Y220C SC150 (μM)": "* (* = 0 μM ≤ SC150 < 0.1 μM)"}, {"smiles": "CN1CC[C@@H](Nc2cccc3c2cc(-c2noc(CNC(=O)C4CC4)n2)n3CC(F)(F)F)[C@@H](F)C1", "note": "[Compound 173B, N-{[3-(4-{[(3S,4R)-3-fluoro-1-methylpiperidin-4-yl]amino}-1-(2,2,2-trifluoroethyl)-1H-indol-2-yl)-1,2,4-oxadiazol-5-yl]methyl}cyclopropanecarboxamide]", "Y220C SC150 (μM)": "* (* = 0 μM ≤ SC150 < 0.1 μM)"}]}]}
